From article PMC7383964 (Chemmedchem, 2020)

How the values were obtained:
[1] = rat, microsomes
[2] = in vitro; settings: male, Sprague-Dawley, rat, microsomes, pH 7.4
[3] = tested on: HEK293T cells; settings: human

SMILES | Intrinsic clearance [1] [µL/min/mg] | half-life [2] [min] | Cell density relative to the effect of vehicle (DMSO) [3] [%]
O=C(/N=N/c1ccc(F)cc1)N1CCCCC1 [Compound 18, (E)‐((4‐Fluorophenyl)diazenyl)(piperidin‐1‐yl)methanone] | 97 ± 15 | 73 ± 12 | 
O=C(/C=C/c1ccc(F)cc1)N1CCCCC1 [Compound 19, (E)‐3‐(4‐Fluorophenyl)‐1‐(piperidin‐1‐yl)prop‐2‐en‐1‐one] | 85 ± 20 | 85 ± 18 | 
C=CCN1CC[C@]23c4c5ccc(O)c4O[C@H]2C(=O)CC[C@@]3(O)[C@H]1C5 [naloxone] |  |  | 84±5
